# From patent US10669283B2, “Compound and pharmacologically acceptable salt thereof” (MEIJI SEIKA PHARMA CO., LTD., priority 2016, dated 2020)
# Where two headings read alike, the source gives them in different places.
# Test system: PDE4
# Assay: PDE4 inhibition, scintillation proximity assay (SPA);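 as to PDE4 Inhibitory Activity (concentration for the inhibition rate of 50%): A below 100 nM B 100 to below 1000 nM C 1000 nM or more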
# Assay type: biochemical
# Protocol: The PDE4 inhibitory activity was measured using scintillation proximity assay (SPA) as follows. A sample compound dissolved in dimethyl sulfoxide was diluted 1:10 in reaction buffer solution which contained 50 mM of Tris-HCl with pH 7.4, 8.3 mM of MgCl2, 1.7 mM of EGTA, and 3 mg/mL of bovine serum albumin (BSA). Then, 10 μL of the diluted solution was added in a 96-well assay plate. Moreover, 50 μL of PDE4 diluted 1:375 in the reaction buffer solution was added, and then 40 μL of [2,8-^3H]-adenosine-3′,5′-cyclic phosphate triethylammonium salt diluted 1:1000 in the reaction buffer solution was added. The mixture was allowed to stand at room temperature for 120 minutes. Thereafter, […] of RNA binding YSi-SPA beads suspension containing ZnSO4 was added and the mixture was allowed to stand at room temperature for 15 minutes, followed by adsorption of the enzyme reaction product to the beads. After that, the radioactivity was measured using a liquid scintillation counter for a 96-well plate. The mixture without the enzyme preparation added but only the reaction buffer solution added is a blank, and the mixture with the enzyme preparation added and only dimethyl sulfoxide added instead of the sample solution is a control.
# [1] = scintillation proximity assay (SPA), evaluated as classes A, B, C, read-out: PDE4 Inhibitory Activity (concentration for the inhibition rate of 50%)
# [2] = scintillation proximity assay, class symbols, read-out: PDE4 Inhibitory Activity
Compound,IC50 [1] [nM],IC50 [2] [nM]
"OCc1cc(-c2nccs2)c2oc(N3CC4CCC(C3)N4)nc2c1C(F)(F)F [Example 170, (2-(3,8-Diazabicyclo[3.2.1]octan-3-yl)-7-(thiazol-2-yl)-4-(trifluoromethyl)benzo[d]oxazol-5-yl)methanol]",< 100,
"OCCOC(c1cc(-c2nccs2)c2oc(N3CC4CCC(C3)N4)nc2c1)C(F)(F)F (stereo not shown) [Example 149, 2-(1-(2-(3,8-Diazabicyclo[3.2.1]octan-3-yl)-7-(thiazol-2-yl)benzo[d]oxazol-5-yl)-2,2,2-trifluoroethoxy)ethan-1-ol]",< 100,
"c1csc(-c2ccc(-c3nccs3)c3oc(N4CC5CCC(C4)N5)nc23)n1 [Example 85, 2-(3,8-Diazabicyclo[3.2.1]octan-3-yl)-4,7-di(thiazol-2-yl)benzo[d]oxazole]",< 100,
"CC(O)c1cc(-c2nccs2)c2oc(N3CC4CCC(C3)N4)nc2c1OC(F)(F)F (stereo not shown) [Example 202, 1-(2-(3,8-Diazabicyclo[3.2.1]octan-3-yl)-7-(thiazol-2-yl)-4-(trifluoromethoxy)benzo[d]oxazol-5-yl)ethan-1-ol]",< 100,
"N#CCOc1ccc(-c2nccs2)c2oc(N3CC4CCC(C3)N4)nc12 [Example 82, 2-((2-(3,8-Diazabicyclo[3.2.1]octan-3-yl)-7-(thiazol-2-yl)benzo[d]oxazol-4-yl)oxy)acetonitrile]",< 100,
"CC(O)C(F)(F)Oc1ccc(-c2nccs2)c2oc(N3CC4CC(C3)N4)nc12 (racemic) [Example 250, 1-((2-(3,6-Diazabicyclo[3.1.1]heptan-3-yl)-7-(thiazol-2-yl)benzo[d]oxazol-4-yl)oxy)-1,1-difluoropropan-2-ol]",< 100,
"N#CCOC(c1ccc(-c2nccs2)c2oc(N3CC4CCC(C3)N4)nc12)C(F)(F)F (stereo not shown) [Example 228, 2-(1-(2-(3,8-Diazabicyclo[3.2.1]octan-3-yl)-7-(thiazol-2-yl)benzo[d]oxazol-4-yl)-2,2,2-trifluoroethoxy)acetonitrile]",< 100,
"CC(=O)OC(c1cc(-c2nccs2)c2oc(N3CC4CCC(C3)N4)nc2c1)C(F)(F)F (stereo not shown) [Example 141, 1-(2-(3,8-Diazabicyclo[3.2.1]octan-3-yl)-7-(thiazol-2-yl)benzo[d]oxazol-5-yl)-2,2,2-trifluoroethyl acetate]",< 100,
"CC(O)(c1ccc(-c2nccs2)c2oc(N3CC4CC(C3)N4)nc12)C(F)F (stereo not shown) [Example 296, 2-(2-(3,6-Diazabicyclo[3.1.1]heptan-3-yl)-7-(thiazol-2-yl)benzo[d]oxazol-4-yl)-1,1-difluoropropan-2-ol]",< 100,
"CC(=O)N(C)c1cc(-c2nccs2)c2oc(N3CC4CCC(C3)N4)nc2c1 [Example 101, N-(2-(3,8-diazabicyclo[3.2.1]octan-3-yl)-7-(thiazol-2-yl)benzo[d]oxazol-5-yl)-N-methylacetamide]",< 100,
"c1csc(-c2ccc(N3CCCC3)c3nc(N4CC5CC(C4)N5)oc23)n1 [Example 415, 2-(3,6-diazabicyclo[3.1.1]heptan-3-yl)-4-(pyrrolidin-1-yl)-7-(thiazol-2-yl)benzo [d]oxazole]",,< 100
"CC(=O)c1cc(-c2nccs2)c2oc(N3CC4CC(C3)N4)nc2c1OC(F)(F)F [Example 212, 1-(2-(3,6-Diazabicyclo[3.1.1]heptan-3-yl)-7-(thiazol-2-yl)-4-(trifluoromethoxy)benzo[d]oxazol-5-yl)ethan-1-one]",< 100,
"COC(C)(C)c1cc(-c2nccs2)c2oc(N3CC4CC(C3)N4)nc2c1C(F)(F)F [Example 176, 2-(3,6-Diazabicyclo[3.1.1]heptan-3-yl)-5-(2-methoxypropan-2-yl)-7-(thiazol-2-yl)-4-(trifluoromethyl)benzo[d]oxazole]",< 100,
"Oc1ccc(-c2nccs2)c2oc(N3CC4CCC(C3)N4)nc12 [Example 78, 2-(3,8-Diazabicyclo[3.2.1]octan-3-yl)-7-(thiazol-2-yl) benzo[d]oxazol-4-ol]",< 100,
"Oc1ccc(-c2nccs2)c2oc(N3CC4CC(C3)N4)nc12 [Example 79, 2-(3,6-Diazabicyclo[3.1.1]heptan-3-yl)-7-(thiazol-2-yl)benzo[d]oxazol-4-ol]",< 100,
"COC(C)c1cc(-c2nccs2)c2oc(N3CC4CCC(C3)N4)nc2c1OC(F)(F)F (stereo not shown) [Example 210, 2-(3,8-Diazabicyclo[3.2.1]octan-3-yl)-5-(1-methoxyethyl)-7-(thiazol-2-yl)-4-(trifluoromethoxy)benzo[d]oxazole]",< 100,
"c1csc(-c2ccc(OC3CCOC3)c3nc(N4CC5CCC(C4)N5)oc23)n1 (stereo not shown) [Example 84, 2-(3,8-Diazabicyclo[3.2.1]octan-3-yl)-4-((tetrahydrofuran-3-yl)oxy)-7-(thiazol-2-yl)benzo[d]oxazole]",< 100,

Compound,IC50 [1] [nM],IC50 [2] [nM]
"Clc1ccc(-c2nccs2)c2oc(N3CC4CC(C3)N4)nc12 [Example 37, 2-(3,6-Diazabicyclo[3.1.1]heptan-3-yl)-4-chloro-7-(thiazol-2-yl)benzo[d]oxazole]",< 100,
"CC(O)C(F)(F)Oc1ccc(-c2cscn2)c2oc(N3CC4CCC(C3)N4)nc12 (stereo not shown) [Example 310, 1-((2-(3,8-Diazabicyclo[3.2.1]octan-3-yl)-7-(thiazol-4-yl)benzo[d]oxazol-4-yl)oxy)-1,1-difluoropropan-2-ol]",< 100,
"OC1CCC(Oc2ccc(-c3nccs3)c3oc(N4CC5CC(C4)N5)nc23)CC1 (stereo not shown) [Example 305, 4-((2-(3,6-Diazabicyclo[3.1.1]heptan-3-yl)-7-(thiazol-2-yl)benzo[d]oxazol-4-yl)oxy)cyclohexan-1-ol]",< 100,
"FC(F)(F)Oc1c(Cl)cc(-c2ncco2)c2oc(N3CC4CCC(C3)N4)nc12 [Example 9, 2-(3,8-Diazabicyclo[3.2.1]octan-3-yl)-5-chloro-7-(oxazol-2-yl)-4-(trifluoromethoxy)benzo[d]oxazole]",< 100,
"CSc1cc(-c2nccs2)c2oc(N3CC4CC(C3)N4)nc2c1 [Example 40, 2-(3,6-Diazabicyclo[3.1.1]heptan-3-yl)-5-(methylthio)-7-(thiazol-2-yl)benzo[d]oxazole]",< 100,
"O=C(NCc1ccccc1)c1cc(-c2nccs2)c2oc(N3CC4CCC(C3)N4)nc2c1 [Example 98, N-benzyl-2-(3,8-diazabicyclo[3.2.1]octan-3-yl)-7-(thiazol-2-yl)benzo[d]oxazole-5-carboxamide]",< 100,
"COC(c1ccc(-c2nccs2)c2oc(N3CC4CC(C3)N4)nc12)C(F)(F)F (stereo not shown) [Example 122, 2-(3,6-Diazabicyclo[3.1.1]heptan-3-yl)-7-(thiazol-2-yl)-4-(2,2,2-trifluoro-1-methoxyethyl)benzo[d]oxazole]",< 100,
"O=C(c1cc(-c2nccs2)c2oc(N3CC4CCC(C3)N4)nc2c1OC(F)(F)F)N1CCC1 [Example 192, (2-(3,8-Diazabicyclo[3.2.1]octan-3-yl)-7-(thiazol-2-yl)-4-(trifluoromethoxy)benzo[d]oxazol-5-yl) (azetidin-1-yl)methanone]",< 100,
"CN(C)C(=O)C(F)(F)Oc1ccc(-c2nccs2)c2oc(N3CC4CC(C3)N4)nc12 [Example 408, 2-((2-(3,6-diazabicyclo [3.1.1]heptan-3-yl)-7-(thiazol-2-yl)benzo[d]oxazol-4-yl)oxy)-2,2-difluoro-N,N-dimethyl-acetamide]",,< 100
"CC(O)C(F)(F)Oc1ccc(-c2cscn2)c2oc(N3CC4CC(C3)N4)nc12 (stereo not shown) [Example 309, 1-((2-(3,6-Diazabicyclo[3.1.1]heptan-3-yl)-7-(thiazol-4-yl)benzo[d]oxazol-4-yl)oxy)-1,1-difluoropropan-2-ol]",< 100,
"CC(O)(c1ccc(-c2nccs2)c2oc(N3CC4CC(C3)N4)nc12)C(F)F (stereo not shown) [Example 297, 2-(2-(3,6-Diazabicyclo[3.1.1]heptan-3-yl)-7-(thiazol-2-yl)benzo[d]oxazol-4-yl)-1,1-difluoropropan-2-ol]",< 100,
"FC(F)(F)c1ccc(-c2nccs2)c2oc(N3CC4CC(C3)N4)nc12 [Example 32, 2-(3,6-Diazabicyclo[3.1.1]heptan-3-yl)-7-(thiazol-2-yl)-4-(trifluoromethyl)benzo[d]oxazole]",< 100,
"FC(F)(F)Oc1c(Cl)cc(-c2ccco2)c2oc(N3CC4CCC(C3)N4)nc12 [Example 6, 2-(3,8-Diazabicyclo[3.2.1]octan-3-yl)-5-chloro-7-(furan-2-yl)-4-(trifluoromethoxy)benzo[d]oxazole]",< 100,
"OCC(F)(F)Oc1ccc(-n2cccn2)c2oc(N3CC4CC(C3)N4)nc12 [Example 320, 2-((2-(3,6-Diazabicyclo[3.1.1]heptan-3-yl)-7-(1H-pyrazol-1-yl)benzo[d]oxazol-4-yl)oxy)-2,2-difluoroethan-1-ol]",< 100,
"CC(C)(O)c1ccc(-c2nccs2)c2oc(N3CC4CCC(C3)N4)nc12 [Example 247, 2-(2-(3,8-Diazabicyclo[3.2.1]octan-3-yl)-7-(thiazol-2-yl)benzo[d]oxazol-4-yl)propan-2-ol]",< 100,
"CC(C)C(O)c1cc(-c2nccs2)c2oc(N3CC4CCC(C3)N4)nc2c1OC(F)(F)F (stereo not shown) [Example 205, 1-(2-(3,8-Diazabicyclo[3.2.1]octan-3-yl)-7-(thiazol-2-yl)-4-(trifluoromethoxy)benzo[d]oxazol-5-yl)-2-methylpropan-1-ol]",< 100,
"FC(F)(F)COC(c1cc(-c2nccs2)c2oc(N3CC4CCC(C3)N4)nc2c1)C(F)(F)F (stereo not shown) [Example 146, 2-(3,8-Diazabicyclo[3.2.1]octan-3-yl)-7-(thiazol-2-yl)-5-(2,2,2-trifluoro-1-(2,2,2-trifluoroethoxy)ethyl)benzo[d]oxazole]",< 100,
